Columns and labels:
ARPE-19 = assay: VEGF expression in lactic acid-treated ARPE-19 retinal pigment epithelium cells; assay type: cell-based, human; details: ARPE-19, 10 mM lactic acid vs untreated control; FIG. 4a
Procedure: Human APRE-19 cells were obtained from ATCC (Manassas, Va., USA), and were cultured in DMEM (Dulbecco's modified Eagle's medium)/F12 medium (1:1, USA) supplemented by 10% bovine fetal serum (FBS) (Gibco, Carlsbad, Calif.), 1% penicillin-streptomycin (Gibco) and 2 mM L-glutamine (Gibco) in a wet incubator under the conditions of 37° C., 5% CO2. For ARPE-19 monolayer culture, ARPE-19 cells were inoculated in a 24-well tissue culture plate (1.53105 cells per well; Corning, Corning, N.Y., USA) and were maintained in DMEM/F12 medium in which serum was reduced (1% FBS). Confluent monolayer culture having TER (Transepithelial resistance) of 40 Ωcm2 or more was used in the experiment. […]
(§1) Total RNA was extracted in cells using trizole (Invitrogen, Carlsbad, Calif., USA) according to the manufacturer's instructions. RNA concentration/quality was evaluated using a nanodrop spectrophotometer (NanoDrop Technology, Wilmington, Del., USA). An equal amount of RNA was under reverse transcription to cDNA using a reverse transcription kit (Enzynomics, Daejeon, Korea), and quantitative real-time PCR (ABI PRISM 7900, Applied Biosystems) was performed using SYBR Green PCR Master Mix (Applied Biosystems, Foster City, Calif., USA) to measure gene expression. […]

HUVEC [1] = assay: VEGF expression in lactic acid-treated HUVEC; assay type: cell-based, human; details: 10 mM lactic acid vs untreated control, FIG. 4b
Procedure: (§2) HUVEC (Human umbilical vein endothelial cell; Lonza Ltd., Basel, Switzerland) was cultured in EGM-2 (endothelial growth medium-2; Lonza). A human acute monocytic leukemia THP-1 cell line was maintained in RPMI medium containing 10% FBS (Gibco). 15 ng/ml PMA (Sigma-Aldrich Corp., St. Louis, Mo., USA) and THP-1 cells were cultured under the conditions of 37° C., 5% CO2 for 2 days, and the THP-1 cells were differentiated into macrophages.
The confluent ARPE-19 monolayer cells maintained in the 24-well plate were incubated with 10 mM L(+)-lactic acid (Sigma-Aldrich Corp.) under presence or absence of α-CHC (α-cyano-4-hydroxycinnamic acid; Sigma-Aldrich) which was an MCT inhibitor (monocarboxylate transporter inhibitor) of 3 mM for a specified period. […]
as §1

HUVEC [2] = assay: Tube formation assay in HUVEC with macrophage conditioned medium; assay type: cell-based, human; details: for tube formation: FIG. 6a
Procedure: Matrigel (Corning) with reduced growth factors was thawed at 4° C. overnight. Each well of the 24-well plate cooled in advance was coated with […] and incubated at 37° C. for 40 minutes. HUVEC (3×10^4 cells) was suspended in EGM-2 medium of 100 μl, and aliquoted in a macrophage conditioned medium of 400 μl, and cultured under the condition of 37° C., 5% CO2 for 12 hours. The macrophage conditioned medium means that 20 mM lactic acid is treated for 24 hours by stimulating macrophages (or macrophages pretreated for 1 hour with α-CHC) and the medium was replaced and then the supernatant was collected.
Endothelial cell tube formation was visualized by Calcein AM (Corning) and then imaging was conducted using Leica CTR6000 fluorescence microscope (Wetzlar, Germany). The number of the capillary-like structure was quantified by manual counting of low-power field (×10). For each well, 5 independent fields were evaluated, and the mean branch number per field (magnification, ×10) was measured.

THP-1 macrophages = assay: VEGF expression/secretion in lactic acid-treated PMA-differentiated THP-1 macrophages (real-time PCR, ELISA); assay type: cell-based, human
Procedure: as §2
The confluent ARPE-19 monolayer cells maintained in the 24-well plate were incubated with 10 mM L(+)-lactic acid (Sigma-Aldrich Corp.) under presence or absence of α-CHC (α-cyano-4-hydroxycinnamic acid; Sigma-Aldrich) which was an MCT inhibitor (monocarboxylate transporter inhibitor) of 3 mM for a specified period. HUVEC was inoculated to a 24-well plate at a density of 1×10^5/well, and when cells reached 60% to 70% confluence, cells were exposed to 10 mM L(+)-lactic acid under presence or absence of 3 mM α-CHC. The THP-1 cells were inoculated in a 24-well plate at a density of 3)(10^5/well, and they were differentiated into macrophages by PMA treatment, and then were cultured with 20 mM L(+)-lactic acid under presence or absence of 3 mM α-CHC.
In addition, the THP-1 cells were inoculated to a 24-well plate at a density of 3)(10^5/well, and were differentiated into macrophages by PMA treatment, and then were cultured with 20 mM L(+)-lactic acid, by treating SR13800 (Tocris Bioscience, Bristol, UK) at a concentration of 0.5 to 2 μM and AR-C155858 at a concentration of 300 to 500 nM, respectively, thereto.
Cells were treated with lactic acid for 24 hours. The medium was collected and centrifuged at 587 g for 5 minutes and particles were removed and stored at −80° C. before performing ELISA.
(§3) The retina and RPE-choroid tissue were isolated from the control (naive; normal group in which CNV was not induced) CNV mouse (on day 3 after laser irradiation) or diabetic retinopathy mouse (on week 20 after STZ administration), and the isolated tissue was homogenized in ice-cold RIPA lysis buffer (Thermo Scientific, Rockford, Ill., USA) containing 1% protease inhibiting cocktail and 1% phosphatase inhibiting cocktail (GenDEPOT, Katy, Tex., USA). After centrifuging at 15,871 g for 15 minutes, the isolated supernatant was used for ELISA analysis. Secretion of VEGF was measured using ELISA Duoset system (R & D Systems, Minneapolis, Minn., USA) according to the manufacturer's instructions.
Total RNA was extracted in cells using trizole (Invitrogen, Carlsbad, Calif., USA) according to the manufacturer's instructions. RNA concentration/quality was evaluated using a nanodrop spectrophotometer (NanoDrop Technology, Wilmington, Del., USA). An equal amount of RNA was under reverse transcription to cDNA using a reverse transcription kit (Enzynomics, Daejeon, Korea), and quantitative real-time PCR (ABI PRISM 7900, Applied Biosystems) was performed using SYBR Green PCR Master Mix (Applied Biosystems, Foster City, Calif., USA) to measure gene expression. In 12 minutes at 95° C., a cycle consisting of 10 seconds at 95° C. and 30 seconds at 60° C. was performed 50 times.
Relative mRNA expression of each sample was standardized by β-actin and RPL37A, and statistics were analyzed using Student's unpaired t-test. The sequences of primers used for amplification were disclosed in the following Table 1.

[3] = system: diabetic retinopathy-induced mice; assay: IB4 staining of retina of STZ diabetic retinopathy-induced mice (bleeding and angiogenesis); assay type: in vivo, mouse; details: intraocular (intravitreal) injection, FIG. 14
Procedure: (§4) After administering STZ (streptozotocin, Sigma) to the peritoneal cavity of male C57BL6/J mice aged 7 to 8 weeks, whether high blood glucose was induced was confirmed by measuring blood glucose in 2 days. Mice of which blood glucose was induced to 400 mg/dL or more were selected, and used in the following experiment. From about 10 weeks after administering STZ, diabetic retinopathy began to appear.
(§5) At about day 140 after administrating STZ to the diabetic retinopathy-induced mice, 3 mM a-CHC 2 μl dissolved in PBS, 2 μM SR13800 2 μl dissolved in PBS, or PBS (vehicle) […] was intravitreally injected and it was used in the following experiment.
Eyes of mice in which diabetes was induced by STZ, prepared by the method of Referential example 3 were extracted and fixed in 4% paraformaldehyde for 1 hour. The anterior segment was removed, and then the retinal tissue was cultured with FITC-conjugated isolectin B4 (Sigma) at 4° C. overnight. After washing with PBS for 10 minutes 10 times using an orbital shaker at a room temperature, the stained tissue was examined under Olympus FV1000 Confocal Scanning Scope.

[4] = system: diabetic retinopathy-induced mice; assay: ELISA of VEGF protein in retina and RPE-choroid of STZ diabetic retinopathy-induced mice; assay type: in vivo, mouse; details: intravitreal 2 μM SR13800 2 μl, FIG. 13
Procedure: as §4, §5, §3

CNV mice [5] = assay: Immunohistological staining for F4/80 and VEGF in RPE-choroid of CNV mice; assay type: in vivo, mouse; details: day 3 after laser irradiation
Procedure: (§6) Female C57BL/6J mice aged 7 to 8 weeks were anesthetized by intraperitoneally injecting a mixture of Ketamine 100 mg/kg and Xylazine 10 mg/kg, and by dropping 1% tropicamide (Alcon Laboratories Inc., Fort Worth, Tex., USA) in eyes, the pupils of the mice were expanded. Laser was irradiated in a direction of 3, 6, 9 and 12 o'clock direction of the 2 disc diameter in an optic disc by 831-nm 106 diode laser photocoagulation method (75 μm spot size, 0.1 sec duration time, 120 mW). Bubbling or pop sensing by laser photocoagulation was considered a successful rupture of the Bruch membrane.
(§7) To evaluate the anti-angiogenic effect by blocking lactic acid intake in macrophages, on day 1 after laser irradiation, when the macrophages began to infiltrate the laser irradiation site (image area), 3 mM α-CHC 2 μl or PBS (vehicle) 2 μl dissolved in PBS was intravitreally injected, and it was used in the following experiment.
Laser was irradiated to mice by the method of Referential example 2, and on day 3, eyes were extracted from mice, and fixed in 4% paraformaldehyde for 1 hour. After removing the retina, the RPE-choroid tissue was cultured with rat anti-mouse F4/80 (Bio-Rad, Richmond, Calif., USA) and APC conjugated anti-mouse VEGF (C-1; Santa Cruz Biotechnology, Inc.) at […] overnight. […] The regions of infiltrated macrophages and secreted VEGF were measured using ImageJ software.

CNV mice [6] = assay: ELISA of VEGF protein in RPE/choroid and retina of CNV mice; assay type: in vivo, mouse; details: RPE/choroid tissue of CNV mice, vs vehicle group, FIG. 8e
Procedure: as §6, with “membrane. […]” for “membrane.”
as §3, with “After centrifuging at 15,871 g for 15 minutes, the isolated supernatant was used for ELISA analysis.” left out

CNV mice [7] = assay: Flow cytometry for VEGF in macrophages of CNV mice after intravitreal injection; assay type: in vivo, mouse; details: intravitreal 3 mM α-CHC 2 μl on day 1 after laser, vs vehicle group, FIG. 8a, 8b
Procedure: as §6, §7
After laser irradiation, on day 1, 3, 7, 14 and 21, laser-irradiated eyes were extracted. […]
Cells labeled using LSR-II cytometer (BD Biosciences, San Jose, Calif., USA) were analyzed and data were analyzed using FlowJo software (version 7.6.2, Ashland, Oreg., USA).

CNV mice [8] = assay: Quantification of choroidal neovascularization (IB4 staining) in CNV mice; assay type: in vivo, mouse; details: RPE-choroid tissue of CNV mice, day 7 after laser irradiation; vehicle group 141,472.9±49,186; FIG. 8f, 8g
Procedure: as §6, with “membrane. […]” for “membrane.”
For evaluation of CNV, on day 1 after laser irradiation, PBS or α-CHC was injected in eyes, and in 6 days (on day 7 after laser irradiation), the RPE-choroid tissue isolated from the eyes of CNV mice was immunohistologically stained with Alexa-Fluor 594-conjugated IB4 (isolectin B4) (Molecular Probes) to visualize CNV. Images obtained by Olympus FV1000 Confocal Scanning Scope were treated in IMARIS imaging software (Bitplane, Zurich, Switzerland) to quantify the IB4-positive CNV amount.

## CC(O)C(=O)O (stereo not drawn) [lactic acid, L(+)-lactic acid]
ARPE-19
  gene transcriptome and protein expression for VEGF: did not change significantly
HUVEC [1]
  gene transcriptome and protein expression for VEGF: did not change significantly
HUVEC [2]; HUVEC with supernatant of lactic acid-stimulated macrophages vs lactic acid untreated group, FIG. 6b
  increase of number of branches: about 5 times
HUVEC [2]; HUVEC with supernatant of macrophages stimulated with 20 mM lactic acid
  tube formation: significantly increased
THP-1 macrophages; PMA-differentiated THP-1 macrophages, 20 mM lactic acid vs untreated control, FIG. 4c
  increase of VEGF expression after treatment of lactic acid: ≥ 3 times
THP-1 macrophages; THP-1 macrophages, 24 hours, FIG. 5
  increase of VEGF secretion after stimulating with lactic acid: about 5 times

## Cc1n[nH]c(C)c1Cc1sc2c(c1C(=O)N1C[C@H](O)CO1)c(=O)n(C)c(=O)n2CC(C)C [AR-C155858]
THP-1 macrophages; THP-1 macrophages, 20 mM lactic acid plus AR-C155858 300 to 500 nM, FIG. 9b
  VEGF expression increased by lactic acid: does not show significant changes

## CC(C)Cc1nn(C)c(=O)c2c(SCCCO)n(Cc3cccc4ccccc34)cc12 [SR13800]
[3]
  bleeding and angiogenesis increased in the diabetic retinopathy model: significantly reduced
[4]; RPE-choroid tissue
  VEGF expression in the RPE-choroid tissue: did not affect
[4]; retinal tissue
  VEGF expression increased in the retinal tissue by induction of diabetic retinopathy: significantly reduced
THP-1 macrophages; THP-1 macrophages, 20 mM lactic acid plus SR13800 0.5 to 2 μM vs only lactic acid, dependent on inhibitor concentration, FIG. 9a
  VEGF secretion: reduced

## N#CC(=Cc1ccc(O)cc1)C(=O)O [α-CHC, α-cyano-4-hydroxycinnamic acid]
CNV mice [5]; intravitreal injection, vehicle group 523,378±165,071, FIG. 8c, 8d
  VEGF positive region in the F4/80 stained macrophage region: 383,738±196,716 μm2
CNV mice [5]; vs vehicle group, FIG. 8d
  area of infiltrated macrophages: no significant difference
HUVEC [2]; HUVEC with supernatant of macrophages pretreated with α-CHC then lactic acid, vs only lactic acid, FIG. 6b
  number of branches: significantly reduced
HUVEC [2]; HUVEC with supernatant of macrophages pretreated with α-CHC then lactic acid
  tube formation: reduced
[3]
  bleeding and angiogenesis increased in the diabetic retinopathy model: reduced
CNV mice [6]
  amount of VEGF protein increased by CNV induction: significantly reduced
CNV mice [7]
  VEGF expression (relative mean fluorescence intensity): significantly reduced
CNV mice [8]
  IB4-positive endothelial cells (CNV amount): 74,160.6±12,339.5 μm^3
THP-1 macrophages; THP-1 macrophages, lactic acid plus α-CHC vs only lactic acid, dependent on inhibitor concentration, FIG. 5
  VEGF secretion (VEGF expression): reduced
